Source: PubChem BioAssay (NCI)
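Tested at 5 concentrations; 48 h exposure; 96-well plates; endpoints linearly interpolated, else capped at highest concentration. The concentration for 50% growth inhibition is given as GI50. TGI: concentration producing complete growth inhibition.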

Tests used:
Assay in all cases: growth of human tumour cells (NCI), 48 h
HOP-92 NSCLC = test system: HOP-92 NSCLC
MCF7 breast = test system: MCF7 breast
MDA-N = test system: MDA-N
NCI/ADR-RES ovarian = test system: NCI/ADR-RES ovarian
OVCAR-8 ovarian = test system: OVCAR-8 ovarian
SF-295 CNS = test system: SF-295 CNS
SK-MEL-2 melanoma = test system: SK-MEL-2 melanoma
SN12C renal = test system: SN12C renal
UO-31 renal = test system: UO-31 renal
KM20L2 colon = test system: KM20L2 colon

Row | Compound | TGI (HOP-92 NSCLC) [µM] | TGI (MCF7 breast) [µM] | TGI (MDA-N) [µM] | TGI (NCI/ADR-RES ovarian) [µM] | TGI (OVCAR-8 ovarian) [µM] | TGI (SF-295 CNS) [µM] | TGI (SK-MEL-2 melanoma) [µM] | TGI (SN12C renal) [µM] | TGI (UO-31 renal) [µM] | TGI (KM20L2 colon) [µM] | GI50 (HOP-92 NSCLC) [µM] | GI50 (KM20L2 colon) [µM] | GI50 (OVCAR-8 ovarian) [µM] | GI50 (SF-295 CNS) [µM] | GI50 (SN12C renal) [µM]
1 | CCc1nc2cc3cccnc3c(Cl)c2[nH]c1=O | > 100 | > 100 | > 100 | > 100 | > 100 | > 100 | > 100 | > 100 | > 100 |  |  |  |  |  | 
2 | CC(C)(C)C(=O)C(Cc1ccccc1)C(=O)C(C)(C)C | > 100 | > 100 | > 100 | > 100 | > 100 | > 100 | > 100 | > 100 | > 100 |  |  |  |  |  | 
3 | O=C1CCc2ccc3c(c21)CC1(Cc2ccccc2C1)C3 | 45.9 | > 100 | > 100 | 53.6 | > 100 | 38 | 38.7 | > 100 | 34 |  |  |  |  |  | 
4 | c1ccc(C2=Nn3c(CCCCCCCCc4nnc5n4N=C(c4ccccc4)CS5)nnc3SC2)cc1 | > 82.3 | > 100 | > 100 | > 100 | > 100 | 55.3 | > 88.7 | > 100 | > 100 |  |  |  |  |  | 
5 | Cc1cc2c(nn1)-c1ccccc1C2=O | > 10 | > 10 | > 10 | > 10 | > 10 | > 10 | > 10 | > 10 | > 10 |  |  |  |  |  | 
6 | CC12CC1C(c1cccc([N+](=O)[O-])c1)(c1cccc([N+](=O)[O-])c1)N=N2 (stereo not drawn) | 34.7 | > 100 | 50.5 | 59.3 | 74.4 | > 100 | > 100 | 55 | 23.8 |  |  |  |  |  | 
7 | C=C(C)[C@@]1(O[Si](C)(C)C)CCCC[C@@H]1CC(Sc1ccccc1)Sc1ccccc1 | 26 | 27.6 | 32.7 | 32 | 31.7 | 25.5 | 31 |  | 27.3 |  |  |  |  |  | 
8 | CC1=C[C@@H](C)C[C@]2(C)CC[C@H](O2)[C@]23CC[C@](C(=O)O)(C[C@H](O2)[C@@H]2O[C@@](C)(CC2=O)[C@@H](O)[C@H]2CC[C@@]4(CCC[C@@H](O4)[C@H](C)C(=O)O[C@H]4C[C@H]([C@]5(O)OCC[C@H](C)[C@@H]5O)O[C@H]4C=C1)O2)O3 | > 8.25 | > 10 | > 10 | > 10 | > 10 | > 10 | > 10 | > 10 | > 10 |  |  |  |  |  | 
9 | Cc1cn([C@H]2C[C@](C)(CO)N(C)O2)c(=O)[nH]c1=O | > 100 | > 100 | > 100 | > 100 |  | > 100 | > 100 | > 100 | > 100 |  |  |  |  |  | 
10 | COc1ccc(N=C2C(=S)N(c3ccc(OC)cc3)/C(=N/S(=O)(=O)c3ccccc3)N2c2ccccc2)cc1 | 20.7 | 35.8 | 8.81 | > 71.4 | 5.47 | > 49.5 | 25.5 | 32.4 | 13.4 |  |  |  |  |  | 
11 | COc1ccc(N=Nc2c3c(c(O)c4ccccc24)CCC(C)(C)O3)cc1 | 47.1 | 29.5 | 30.6 | > 100 | > 100 | 30.3 | 40.3 | 38.7 | 35.2 |  |  |  |  |  | 
12 | COC(=O)[C@H](C)NC(=O)[C@H](CSC)N1C(=O)N[C@@H](C(C)C)C1=O | > 100 | > 100 | > 100 | > 100 | > 100 | > 100 | > 100 | > 100 | > 100 |  |  |  |  |  | 
13 | COC(=O)C1=C(C)NC(C)=C([N+](=O)[O-])C1c1cccc(N=O)c1 (stereo not drawn) | 12.8 | 38.5 | 21.6 | 45.9 | 32.1 | 51.5 | 33.8 | 34.5 | 24.8 |  |  |  |  |  | 
14 | CC(C)(C)c1ccc(OCC(=O)O)c(Cl)c1 | > 100 | > 100 | > 100 | > 100 | > 100 | > 100 | > 100 | > 100 | > 100 |  |  |  |  |  | 
15 | NC(=O)c1ncn2c1NC(=O)CC2 | > 100 | > 100 |  | > 100 | > 100 | > 100 | > 100 | > 100 | > 100 | > 100 |  |  |  |  | 
16 | O=C1CCCc2cc3c(cc21)CC1(C3)Cc2ccc3c(c2C1)C(=O)CCC3 (stereo not drawn) | > 100 | 42.8 | 26.1 | 37 | > 100 | > 100 | 88.9 | > 100 | > 100 |  |  |  |  |  | 
17 | C[C@]12CC[C@H](O)C=C1CC[C@@H]1[C@@H]2CC[C@]2(C)C(c3ccc(=O)oc3)CC[C@]12O (stereo partly drawn) | 0.0448 | 0.173 |  | 0.0926 | 0.0527 | 0.0289 | 0.0647 | 0.0773 | 0.041 | 0.148 |  |  |  |  | 
18 | COc1cc(CC(C)N)ccc1O (stereo not drawn) | > 100 | > 100 | > 100 | > 100 | > 100 | > 100 | > 100 | > 100 | > 100 | > 100 |  |  |  |  | 
19 | Cc1cn2c(C)csc2c1P(=O)(OC(C)C)OC(C)C | > 100 | > 100 | > 100 | > 100 | > 100 | > 100 | > 100 | > 100 | > 100 |  |  |  |  |  | 
20 | Cc1c2ccncc2c(C)c2c1[nH]c1ccccc12 | 2.59 | 2.54 |  | 2.93 | 2.32 | 2 | 6.79 | 4.63 | 4.62 | 5.89 |  |  |  |  | 
21 | O=C([CH-]C(=O)c1ccccc1)c1ccccc1.O=C([CH-]C(=O)c1ccccc1)c1ccccc1.[O]=[U+2]=[O] | 6.18 |  |  |  | > 100 | 4.29 |  | 18.7 |  | 12.4 | 2.9 | 2.65 | 3.02 | 1.81 | 3.33
22 | COP(=O)(OC)C12CCOCCN1c1ccccc1C2=O (stereo not drawn) | > 100 | > 100 | > 100 | > 100 | > 100 | > 100 | > 100 | > 100 | > 100 |  |  |  |  |  | 
